Measurements reported in patent US20240002437A1, “COMPOSITIONS AND METHODS OF TREATING INFLAMMATORY LUNG DISEASES” (priority 2020, published 2024).
Entries after “also recorded” stand apart in the source; their conditions may differ.

Legend:
purified PKCα = purified PKCα (Homo sapiens, UniProt P17252); test: In vitro peptide binding assay (biotinylated d-peptide, streptavidin capture, blot); conditions: biotinylated d-peptide 0 to 5 μg, PKC lipid activator, 1 hour room temperature
Description: Biotinylation of the decoy peptide (d-peptide) was performed using the Thermo Scientific EZ-Link Sulfo-NHS-LC-Biotinylation Kit. Briefly, Sulfo-NHS-LC-Biotin was mixed with d-peptide and the reaction mix was incubated at room temperature for 30 minutes. Different concentrations of the biotinylated d-peptide (0 to 5 μg) mixed with either purified eNOS protein or PKCα protein in a reaction mix containing PKC lipid activator were incubated at room temperature for 1 hour. Protein bound to the biotinylated d-peptide was captured using Thermo Scientific streptavidin agarose column and run on a 10% SDS-PAGE gel under reducing condition. The resulting blots were probed with antibodies to eNOS and PKCα protein respectively. Reactive bands were visualized using chemiluminescence on the LI-COR Odyssey image station.

mouse model of VILI = test: Mouse model of VILI (high tidal volume ventilation); assay type: in vivo; conditions: 10 mg/kg intraperitoneally 3 h before ventilation; tidal volume 35 mL/kg, 4 h
Description: Male C57BL/6 mice aged between 6 and 8 weeks were purchased from Jackson Laboratories (ME, USA). Mice were maintained at a room temperature of 22±1° C. in air with 40-70% humidity at least one week before experiments. Animals were randomly distributed into 4 groups (n=5 in each group): non-ventilated control mice with normal saline; non-ventilated control mice treated with the eNOS decoy peptide (d-peptide); high tidal volume with normal saline; high tidal volume with eNOS decoy peptide. Three hours before ventilation, saline or the eNOS decoy peptide (10 mg/kg body weight) were injected intraperitoneally. Before mechanical ventilation was initiated, mice were anesthetized using an intraperitoneal injection with a cocktail containing ketamine (100 mg/kg) and xylazine (5 mg/kg). The mice were then placed in a supine position on a heating pad to maintain body temperature. For the ventilation procedure, mice were orotracheally intubated with a 20 g intravenous indwelling catheter and attached to a small animal ventilator (SAR-1000, CWE Inc., USA). The ventilation parameters were set as follows: inspiration/expiration ratio, 33%; respiratory rate, 75 breaths/min; and tidal volume, 35 mL/kg (high tidal volume group). During mechanical ventilation, mice were maintained in deep anesthesia by injecting with ketamine (100 mg/kg) every 45 minutes for the duration of the 4 h study. Mice in the non-ventilated control group were allowed to spontaneously breathe. […] The pellets were then resuspended in 500 μl of PBS and the cell numbers present were determined using an automated cell counter. The BAL fluid was centrifuged again at 15,000× g at 4° C. for 15 min and the supernatant collected and stored at −80° C. until the protein concentration was measured. […]
Protein extracts were prepared using lysis buffer (50 mM Tris-HCl, pH 7.6, 0.5% Triton X-100, 20% glycerol) containing HALT™ protease inhibitor cocktail (Pierce Laboratories, Rockford, IL). […] Bands were quantified using LI-COR Image Station software. […]

PAEC = test: Mitochondrial ROS levels (MitoSOX Red) in PAEC; assay type: cell-based, ovine; conditions: 4αPDD 10 μM, 3 h
Description: Primary cultures of ovine pulmonary arterial endothelial cells (PAEC) were isolated as described previously (L. K. Kelly, Am J Physiol Lung Cell Mol Physiol, 286(5), L984-91 (2004)). Briefly, cells were maintained in Dulbecco's modified Eagle medium (DMEM) supplemented with 10% fetal calf serum (Hyclone, Logan, UT), antibiotics/antimycotic (500 IU Penicillin, 500 μg/ml Streptomycin, 1.25 μg/ml Amphotericin B; MediaTech, Herndon, VA) at 37° C. in a humidified atmosphere with 5% CO2 and 95% air. Cells were used for experiments between passages 9-14, seeded at ˜50% confluence, and utilized when fully confluent.
MitoSOX™ Red (Molecular Probes), a fluorogenic dye for selective detection of ROS levels in the mitochondria of live cells was used. Briefly, cells were washed with fresh media, and then incubated in media containing MitoSOX Red (2 μM), for 30 min at 37° C. in dark conditions then subjected to fluorescence microscopy at an excitation of 510 nm and an emission at 580 nm. An Olympus IX51 microscope equipped with a CCD camera (Hamamatsu Photonics) was used for acquisition of fluorescent images. The average fluorescent intensities (to correct for differences in cell number) were quantified using ImagePro Plus version 5.0 imaging software (Media Cybernetics, Rockville, MD).

| Compound | binding to purified PKCα (purified PKCα) | BALF cell number (mouse model of VILI) | BALF protein levels (mouse model of VILI) | increase in pT495-eNOS induced by mechanical ventilation of the mouse lung (mouse model of VILI) | mitochondrial ROS levels (MitoSOX red fluorescence) (PAEC) |
| --- | --- | --- | --- | --- | --- |
| HRKKRRQRRITRKKTFKEVA [d-peptide] | binds efficiently; also recorded: able to bind efficiently to purified PKCα | decreases in the cell number | decreases | attenuated the increase in pT495-eNOS induced by mechanical ventilation |  |
| CCCCCCCCCC(=O)O[C@@H]1[C@@H](C)[C@@]2(O)[C@@H](C=C(CO)C[C@@]3(O)C(=O)C(C)=C[C@@H]23)[C@@H]2C(C)(C)[C@]12OC(=O)CCCCCCCCC [4αPDD, 4α-Phorbol-12,13 didecanoate] |  |  |  |  | increases in mitochondrial ROS levels |
